Results published in PubChem BioAssay AID1918936 (Molecular Pharmacology Branch, DTP, NCI, 2023).
Several values for one entry are separate records, joined by “and”; a condition that tells them apart may be missing. Identical values can stand only once. Each block holds one molecule with its values, some of them ahead of it.

Test system: 349418-098-R-PDC complex spheroid viability
Assay: Anticancer human tumor 349418-098-R-PDC patient-derived lung adenocarcinoma cell line growth inhibition
Settings: for viability, T/C: stronger effect = lower value
How it was run: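 Multicellular complex spheroids of tumor cells with human endothelial cells (HUVEC) and mesenchymal stem cells; the LSD1 inhibitor iadademstat was combined with standard-of-care or investigational agents. Top concentration at or near clinical Cmax, half-log dilutions; final DMSO ≤0.25%.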

[1] = curve of first compound, second compound 0.1 µM
[2] = curve of first compound, second compound 0.316 µM
[3] = curve of first compound, second compound 1 µM
[4] = curve of first compound, second compound 3.16 µM
[5] = curve of first compound, second compound 10 µM
[6] = second compound 0.1 µM, first compound 0.0316 µM
[7] = second compound 0.1 µM, first compound 0.1 µM
[8] = second compound 0.316 µM, first compound 0.0316 µM
[9] = second compound 0.316 µM, first compound 0.1 µM
[10] = second compound 1 µM, first compound 0.0316 µM
[11] = second compound 1 µM, first compound 0.1 µM
[12] = second compound 3.16 µM, first compound 0.0316 µM
[13] = second compound 3.16 µM, first compound 0.1 µM
[14] = second compound 10 µM, first compound 0.0316 µM
[15] = second compound 10 µM, first compound 0.1 µM
[16] = second compound 0.1 µM, first compound 0.00949 µM
[17] = second compound 0.1 µM, first compound 0.03 µM
[18] = second compound 0.1 µM, first compound 0.0949 µM
[19] = second compound 0.1 µM, first compound 0.3 µM
[20] = second compound 0.1 µM, first compound 0.949 µM
[21] = second compound 0.1 µM, first compound 3 µM
[22] = second compound 0.316 µM, first compound 0.00949 µM
[23] = second compound 0.316 µM, first compound 0.03 µM
[24] = second compound 0.316 µM, first compound 0.0949 µM
[25] = second compound 0.316 µM, first compound 0.3 µM
[26] = second compound 0.316 µM, first compound 0.949 µM
[27] = second compound 0.316 µM, first compound 3 µM
[28] = second compound 1 µM, first compound 0.00949 µM
[29] = second compound 1 µM, first compound 0.03 µM
[30] = second compound 1 µM, first compound 0.0949 µM
[31] = second compound 1 µM, first compound 0.3 µM
[32] = second compound 1 µM, first compound 0.949 µM
[33] = second compound 1 µM, first compound 3 µM
[34] = second compound 3.16 µM, first compound 0.00949 µM
[35] = second compound 3.16 µM, first compound 0.03 µM
[36] = second compound 3.16 µM, first compound 0.0949 µM
[37] = second compound 3.16 µM, first compound 0.3 µM
[38] = second compound 3.16 µM, first compound 0.949 µM
[39] = second compound 3.16 µM, first compound 3 µM
[40] = second compound 10 µM, first compound 0.00949 µM
[41] = second compound 10 µM, first compound 0.03 µM
[42] = second compound 10 µM, first compound 0.0949 µM
[43] = second compound 10 µM, first compound 0.3 µM
[44] = second compound 10 µM, first compound 0.949 µM
[45] = second compound 10 µM, first compound 3 µM
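Also: spheroids exposed to agents for seven days before readout.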
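For viability, T/C in this document: 100% = DMSO vehicle control wells.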

SMILES: CC(C)c1c(-c2ccccc2)nc2c(C#N)c[nH]n2c1=O + NC1CC1c1ccc(-c2cccc(O)c2)cc1
- IC50 [1]: > 10000 nM
- IC50 [2]: > 10000 nM
- IC50 [3]: > 10000 nM
- IC50 [4]: > 10000 nM
- IC50 [5]: > 10000 nM
- viability, T/C [6]: 126%
- viability, T/C [7]: 122%
- viability, T/C (second compound 0.1 µM, first compound 0.316 µM): 119%
- viability, T/C (second compound 0.1 µM, first compound 1 µM): 106%
- viability, T/C (second compound 0.1 µM, first compound 3.16 µM): 111%
- viability, T/C (second compound 0.1 µM, first compound 10 µM): 80.7%
- viability, T/C [8]: 95.6%
- viability, T/C [9]: 113%
- viability, T/C (second compound 0.316 µM, first compound 0.316 µM): 118%
- viability, T/C (second compound 0.316 µM, first compound 1 µM): 106%
- viability, T/C (second compound 0.316 µM, first compound 3.16 µM): 98.7%
- viability, T/C (second compound 0.316 µM, first compound 10 µM): 81.8%
- viability, T/C [10]: 114%
- viability, T/C [11]: 103%
- viability, T/C (second compound 1 µM, first compound 0.316 µM): 120%
- viability, T/C (second compound 1 µM, first compound 1 µM): 99.2%
- viability, T/C (second compound 1 µM, first compound 3.16 µM): 95.7%
- viability, T/C (second compound 1 µM, first compound 10 µM): 102%
- viability, T/C [12]: 104%
- viability, T/C [13]: 106%
- viability, T/C (second compound 3.16 µM, first compound 0.316 µM): 111%
- viability, T/C (second compound 3.16 µM, first compound 1 µM): 100%
- viability, T/C (second compound 3.16 µM, first compound 3.16 µM): 104%
- viability, T/C (second compound 3.16 µM, first compound 10 µM): 91.2%
- viability, T/C [14]: 86.1%
- viability, T/C [15]: 82.4%
- viability, T/C (second compound 10 µM, first compound 0.316 µM): 86.7%
- viability, T/C (second compound 10 µM, first compound 1 µM): 75.3%
- viability, T/C (second compound 10 µM, first compound 3.16 µM): 62.5%
- viability, T/C (second compound 10 µM, first compound 10 µM): 64.8%

- IC50 (curve of compound): 200 nM and 77.3 nM
SMILES: Nc1ccccc1NC(=O)c1ccc(CNC(=O)OCc2cccnc2)cc1
- viability, T/C (compound 0.00949 µM): 92.5% and 80.8%
- viability, T/C (compound 0.03 µM): 83% and 67.2%
- viability, T/C (compound 0.0949 µM): 63.3% and 46.6%
- viability, T/C (compound 0.3 µM): 44.4% and 22.8%
- viability, T/C (compound 0.949 µM): 17.9% and 5.31%
- viability, T/C (compound 3 µM): 5.6% and 3.19%

- IC50 (curve of compound): 0.633 nM and 0.818 nM
SMILES: CC(C)CC(NC(=O)CNC(=O)c1cc(Cl)ccc1Cl)B1OC(=O)CC(CC(=O)O)(C(=O)O)O1 (centres undefined)
- viability, T/C (compound 0.000316 µM): 88.8% and 103%
- viability, T/C (compound 0.001 µM): 24.5% and 38.9%
- viability, T/C (compound 0.00316 µM): 4.47% and 4.31%
- viability, T/C (compound 0.01 µM): 2.14% and 2%
- viability, T/C (compound 0.0316 µM): 1.69% and 1.05%
- viability, T/C (compound 0.1 µM): 1.35% and 1.12%

SMILES: COc1cc(C2c3cc4c(cc3C(OC3OC5COC(C)OC5C(O)C3O)C3COC(=O)C23)OCO4)cc(OC)c1O (centres undefined) + NC1CC1c1ccc(-c2cccc(O)c2)cc1
- IC50 [1]: 61.1 nM
- IC50 [2]: 62.7 nM
- IC50 [3]: 67.3 nM
- IC50 [4]: 57.1 nM
- IC50 [5]: 35 nM
- viability, T/C [16]: 108%
- viability, T/C [17]: 86.4%
- viability, T/C [18]: 27.3%
- viability, T/C [19]: 7.24%
- viability, T/C [20]: 3.83%
- viability, T/C [21]: 3.5%
- viability, T/C [22]: 114%
- viability, T/C [23]: 89.4%
- viability, T/C [24]: 27.7%
- viability, T/C [25]: 7.71%
- viability, T/C [26]: 3.95%
- viability, T/C [27]: 2.97%
- viability, T/C [28]: 97.6%
- viability, T/C [29]: 92.7%
- viability, T/C [30]: 31.8%
- viability, T/C [31]: 6.96%
- viability, T/C [32]: 3.37%
- viability, T/C [33]: 2.89%
- viability, T/C [34]: 114%
- viability, T/C [35]: 83.5%
- viability, T/C [36]: 23.5%
- viability, T/C [37]: 7.14%
- viability, T/C [38]: 3.98%
- viability, T/C [39]: 3.63%
- viability, T/C [40]: 95.6%
- viability, T/C [41]: 55.4%
- viability, T/C [42]: 14.7%
- viability, T/C [43]: 5.55%
- viability, T/C [44]: 3.81%
- viability, T/C [45]: 3.47%

SMILES: NS(=O)(=O)OCC1CC(n2ccc3c(NC4CCc5ccccc54)ncnc32)CC1O (centres undefined) + NC1CC1c1ccc(-c2cccc(O)c2)cc1
- IC50 [1]: 64.1 nM
- IC50 [2]: 59.1 nM
- IC50 [3]: 59.6 nM
- IC50 [4]: 60.7 nM
- IC50 [5]: 38 nM
- viability, T/C [16]: 116%
- viability, T/C [17]: 86.6%
- viability, T/C [18]: 30.5%
- viability, T/C [19]: 11.9%
- viability, T/C [20]: 5.29%
- viability, T/C [21]: 4.99%
- viability, T/C [22]: 120%
- viability, T/C [23]: 82.3%
- viability, T/C [24]: 26.6%
- viability, T/C [25]: 12.4%
- viability, T/C [26]: 5.84%
- viability, T/C [27]: 4.12%
- viability, T/C [28]: 124%
- viability, T/C [29]: 77%
- viability, T/C [30]: 31.9%
- viability, T/C [31]: 11.3%
- viability, T/C [32]: 5.2%
- viability, T/C [33]: 4.27%
- viability, T/C [34]: 124%
- viability, T/C [35]: 81.6%
- viability, T/C [36]: 29.2%
- viability, T/C [37]: 12.2%
- viability, T/C [38]: 5.08%
- viability, T/C [39]: 4.44%
- viability, T/C [40]: 106%
- viability, T/C [41]: 55.5%
- viability, T/C [42]: 28.1%
- viability, T/C [43]: 9.97%
- viability, T/C [44]: 4.94%
- viability, T/C [45]: 2.73%

SMILES: CC(C)CC(NC(=O)CNC(=O)c1cc(Cl)ccc1Cl)B1OC(=O)CC(CC(=O)O)(C(=O)O)O1 (centres undefined) + NC1CCC(NC2CC2c2ccccc2)CC1
- IC50 [1]: 0.62 nM
- IC50 [2]: 0.661 nM
- IC50 [3]: 0.681 nM
- IC50 [4]: 0.596 nM
- IC50 [5]: 0.606 nM
- viability, T/C (second compound 0.1 µM, first compound 0.000316 µM): 89.2%
- viability, T/C (second compound 0.1 µM, first compound 0.001 µM): 22%
- viability, T/C (second compound 0.1 µM, first compound 0.00316 µM): 4.81%
- viability, T/C (second compound 0.1 µM, first compound 0.01 µM): 1.88%
- viability, T/C [6]: 1.17%
- viability, T/C [7]: 1.44%
- viability, T/C (second compound 0.316 µM, first compound 0.000316 µM): 97.2%
- viability, T/C (second compound 0.316 µM, first compound 0.001 µM): 23.5%
- viability, T/C (second compound 0.316 µM, first compound 0.00316 µM): 4.46%
- viability, T/C (second compound 0.316 µM, first compound 0.01 µM): 1.83%
- viability, T/C [8]: 1.73%
- viability, T/C [9]: 1.09%
- viability, T/C (second compound 1 µM, first compound 0.000316 µM): 96.5%
- viability, T/C (second compound 1 µM, first compound 0.001 µM): 26.8%
- viability, T/C (second compound 1 µM, first compound 0.00316 µM): 4.37%
- viability, T/C (second compound 1 µM, first compound 0.01 µM): 1.55%
- viability, T/C [10]: 1.3%
- viability, T/C [11]: 0.81%
- viability, T/C (second compound 3.16 µM, first compound 0.000316 µM): 82.2%
- viability, T/C (second compound 3.16 µM, first compound 0.001 µM): 23.4%
- viability, T/C (second compound 3.16 µM, first compound 0.00316 µM): 4.76%
- viability, T/C (second compound 3.16 µM, first compound 0.01 µM): 1.66%
- viability, T/C [12]: 1.29%
- viability, T/C [13]: 0.98%
- viability, T/C (second compound 10 µM, first compound 0.000316 µM): 90.5%
- viability, T/C (second compound 10 µM, first compound 0.001 µM): 18.7%
- viability, T/C (second compound 10 µM, first compound 0.00316 µM): 4.32%
- viability, T/C (second compound 10 µM, first compound 0.01 µM): 1.66%
- viability, T/C [14]: 1.03%
- viability, T/C [15]: 0.65%
